Source: US12590057B2, “Crystalline complexes” (Theracryf PLC, priority 2020, dated 2026)

Assays:
Assay type in all cases: physicochemical
[1] = Variable humidity XRPD (VH-XRPD) at 25° C.; details: 25° C.
From the text: Non-ambient conditions: XRPD diffractograms were collected on a PANalytical Empyrean diffractometer using Cu Kα radiation (45 kV, 40 mA) in reflection geometry. The instrument is fitted with an Anton Paar CHC plus^+ stage fitted with graphite/Kapton windows and equipped with air cooling coupled with a proUmid MHG32 Modular Humidity Generator or a low vacuum pump system using an Edwards RV3 pump. A programmable divergence slit (in automatic mode), with a 10 mm fixed incident beam mask, Ni filter and 0.04 rad Soller slits were used on the incident beam. A PIXcel^3D detector, placed on the diffracted beam, was fitted with a programmable anti-scatter slit (in automatic mode) and 0.04 rad Soller slits. The software used for data collection was X'Pert Data Collector and the data analysed and presented using Diffrac Plus EVA or Highscore Plus. For variable humidity (VH-XRPD) experiments the samples were prepared and analysed in an Anton Paar chromed low-profile sample holder with silicon wafer insert. The measurement parameters are as per the standard screening data collection method (detailed above). For all variable humidity XRPD experiments, a pattern was recorded every hour. […] The Form 1 sample was loaded into the VH chamber, which was set to 40% RH and 25° C. and then the RH was decreased in 10% decrements to 10% RH followed by increasing the RH in 10% increments to 90% RH, while maintaining the temperature at 25° C. […] The sample then quickly transitioned from Form 1 at 80% RH to Form 2 at 90% RH. A variable humidity (VH) XRPD experiment was performed to examine how Form 3 exists under different RH conditions. […] The sample was stable as Form 2 for 8 hours at 80% RH. At 90% RH Form 2 existed for 2 hours before the sample deliquesced in the humidity chamber.

[2] = Typical water content of the crystalline forms
Protocol: The water content of a sample can be determined by any suitable means as will be apparent to one of skill in the art. In one embodiment, the water content is determined by Karl-Fischer titration. In one embodiment, the water content is determined by thermogravimetric analysis (TGA). In one embodiment, the water content is determined by gravimetric vapour sorption (GVS). After formation of the crystalline complex according to the invention, the water content may be as low as 1-3% w/w. However, after exposure of the complex to ambient conditions (25° C., 40% RH) the material typically equilibrates (e.g. over a period of 3-7 days) to a water content of up to 5-7% w/w. It has been found, however, that Form 3, once equilibrated to 5-7% w/w water, maintains physical form at 60% RH making it unexpectedly stable over the 0% and 60% humidity range.

[3] = XRPD physical form after storage; details: double bagged in HDPE bottle
Protocol: XRPD diffractograms were collected on a PANalytical Empyrean diffractometer using Cu Kα radiation (45 kV, 40 mA) in transmission geometry. A 0.5° sat, 4 mm mask and 0.04 rad Soller slits with a focusing mirror were used on the incident beam. A PIXcel^3D detector, placed on the diffracted beam, was fitted with a receiving slit and 0.04 rad Soller slits. The software used for data collection was X'Pert Data Collector using X'Pert Operator Interface. The data were analysed and presented using Diffrac Plus EVA or HighScore Plus.
After removal from the vacuum oven (day 0), Example 3 was reanalysed by XRPD in reflection mode on days 7, 9 and 29.
(§1) In a separate study, samples of Form 3 (Example 5.3; batch ref. 491-PAL-18) having an initial water content by KF of 2.3% w/w were tested for water content at various time points after storage double bagged in a HDPE bottle under various conditions as shown in Table 17.

[4] = Preliminary stability study, related substances by HPLC
Protocol: Analysis of samples of sulforaphane:alpha-cyclodextrin complexes as prepared herein were carried out by HPLC according to the following method: • Column—Phenomenex Gemini C18, 5 μm, 110 Å, 250×4.6 mm; • Mobile Phase A: Water (+0.1% TFA); • Mobile Phase B: Acetonitrile (+0.1% TFA); • Flow: 1.5 mL/min; • Injection Volume: 10 μL; • Column Temperature: 25° C.; • Run Time: 40 minutes; • Sample preparation—Accurately weighed and transferred about 320 mg±30 mg of the sample to a 25-mL volumetric flask, added about 15 mL of diluent (70% water, 30% acetonitrile, 0.1% TFA) and mixed until dissolved. Diluted to volume with diluent and mixed. Transferred 3-4 mL to a syringe and filtered using a 0.45 PTFE filter, discarding the first 1-2 ml, and filtered into an autosampler vial and sealed with PTFE lined cap (prepared in duplicate); • HPLC Gradient according to Table 12
Sulforaphane and certain related impurity peaks are summarised in Table 13, Characterisation of the impurities was carried out by LC-MS and ^1H-NMR. Relative Retention Times (RRT) are based on the HPLC method described above.
Samples of Form 1 (batch ref. LS19-0004-S-8002), Form 3 prepared by minimally-agitated drying (Example 5.3; batch ref. 491-PAL-18) and Form 3 prepared by continuously-agitated filter drying (Example 5B—trial 5; batch ref. 00173-005) were stored at 5° C. (Table 14) and at 25° C./60% RH (Table 15) for 8 weeks in 60 ml Duma® bottles fitted with 45 mm Duma® caps and samples were analysed by HPLC according to the above method.

[5] = KF water content of stability samples
Protocol: The water content of each sample was measured on a Metrohm 874 Oven Sample Processor at 150° C. with 851 Titrano Coulometer using Hydranal Coulomat AG oven reagent and nitrogen purge. Weighed solid samples were introduced into a sealed sample vial. Approximately 10 mg of sample was used per titration and duplicate determinations were made. […] Data collection and analysis were performed using Tiamo software.
The water content of samples of Form 1 (batch ref. LS19-0004-3-8002), Form 3 prepared by minimally-agitated drying ([…]; batch ref. 491-PAL-18) and Form 3 prepared by continuously-agitated filter drying (Example 5B trial 5; batch ref. 00173-005) was analysed by KF at the start of the stability study (initial) and after 2, 4 and 8 weeks storage in 60 ml Duma® bottles fitted with 45 mm Duma® caps (without desiccant) at 25° C./60% RH—see Table 16;
as §1

[6] = 25° C./60% RH stability, Initial
[7] = 2 weeks, Duma bottles without desiccant, 25° C./60% RH
[8] = 4 weeks, Duma bottles without desiccant, 25° C./60% RH
[9] = 8 weeks, Duma bottles without desiccant, 25° C./60% RH
[10] = Initial, Duma bottles without desiccant, 25° C./60% RH study

## C[S+]([O-])CCCCN=C=S.OCC1OC2OC3C(CO)OC(OC4C(CO)OC(OC5C(CO)OC(OC6C(CO)OC(OC7C(CO)OC(OC1C(O)C2O)C(O)C7O)C(O)C6O)C(O)C5O)C(O)C4O)C(O)C3O (centres unmarked) [Form 2]
[1]
  Stability at 25° C. (RH range in which the form is stable): Above 80% RH
[2]
  Typical water content: 13-20 % w/w

## C[S+]([O-])CCCCN=C=S.OC[C@H]1O[C@@H]2O[C@H]3[C@H](O)[C@@H](O)[C@@H](O[C@H]4[C@H](O)[C@@H](O)[C@@H](O[C@H]5[C@H](O)[C@@H](O)[C@@H](O[C@H]6[C@H](O)[C@@H](O)[C@@H](O[C@H]7[C@H](O)[C@@H](O)[C@@H](O[C@H]1[C@H](O)[C@H]2O)O[C@@H]7CO)O[C@@H]6CO)O[C@@H]5CO)O[C@@H]4CO)O[C@@H]3CO [Form 3 (Example 5.3)]
[3]; 1 month, 40° C./75% RH
  XRPD main peaks of stability sample: concordant with Form 3
[3]; 3 month, 25° C./60% RH
  XRPD main peaks of stability sample: concordant with Form 3
[4]; 5° C. stability, 8 wk
  Related substances, HPLC RRT 0.56 (Dimer): <0.05 % Area
  Related substances, HPLC RRT 0.60 (α-CD adduct): 1.19 % Area
  Related substances, HPLC RRT 1.14 (Mixed dimer): 0.05 % Area
  Related substances, HPLC RRT 1.21 (Erysolin): 0.28 % Area
  Related substances, HPLC RRT 1.58 (Thioether dimer): 0.07 % Area
  Related substances, Total Impurities: 1.98 % Area
[4]; 5° C. stability, Initial
  Related substances, HPLC RRT 0.56 (Dimer): <0.05 % Area
  Related substances, HPLC RRT 0.60 (α-CD adduct): 0.95 % Area
  Related substances, HPLC RRT 1.14 (Mixed dimer): 0.05 % Area
  Related substances, HPLC RRT 1.21 (Erysolin): 0.29 % Area
  Related substances, HPLC RRT 1.58 (Thioether dimer): 0.08 % Area
  Related substances, Total Impurities: 1.71 % Area
[4]; 25° C./60% RH stability, 8 wk
  Related substances, HPLC RRT 0.56 (Dimer): 0.26 % Area
  Related substances, HPLC RRT 0.60 (α-CD adduct): 3.21 % Area
  Related substances, HPLC RRT 1.14 (Mixed dimer): 0.05 % Area
  Related substances, HPLC RRT 1.21 (Erysolin): 0.27 % Area
  Related substances, HPLC RRT 1.58 (Thioether dimer): 0.07 % Area
  Related substances, Total Impurities: 4.57 % Area
[4]; [6]
  Related substances, HPLC RRT 0.56 (Dimer): <0.05 % Area
  Related substances, HPLC RRT 0.60 (α-CD adduct): 0.95 % Area
  Related substances, HPLC RRT 1.14 (Mixed dimer): 0.05 % Area
  Related substances, HPLC RRT 1.21 (Erysolin): 0.29 % Area
  Related substances, HPLC RRT 1.58 (Thioether dimer): 0.08 % Area
  Related substances, Total Impurities: 1.71 % Area
[5]; [7]
  KF water content: 2.5 % w/w
[5]; [8]
  KF water content: 2.1 % w/w
[5]; 5° C., 1 month, double bagged in HDPE bottle
  KF water content: 4.2 % w/w
[5]; 5° C., 3 months, double bagged in HDPE bottle
  KF water content: 4.6 % w/w
[5]; 5° C., 6 months, double bagged in HDPE bottle
  KF water content: 4.7 % w/w
[5]; 5° C., Initial, double bagged in HDPE bottle
  KF water content: 2.3 % w/w
[5]; [9]
  KF water content: 3.2 % w/w
[5]; 25° C./60% RH, 1 month, double bagged in HDPE bottle
  KF water content: 6.1 % w/w
[5]; 25° C./60% RH, 3 months, double bagged in HDPE bottle
  KF water content: 5.7 % w/w
[5]; 25° C./60% RH, 6 months, double bagged in HDPE bottle
  KF water content: 6.1 % w/w
[5]; 25° C./60% RH, Initial, double bagged in HDPE bottle
  KF water content: 2.3 % w/w
[5]; 40° C./75% RH, 1 month, double bagged in HDPE bottle
  KF water content: 6.2 % w/w
[5]; 40° C./75% RH, 3 months, double bagged in HDPE bottle
  KF water content: 6.2 % w/w
[5]; 40° C./75% RH, Initial, double bagged in HDPE bottle
  KF water content: 2.3 % w/w
[5]; [10]
  KF water content: 2.4 % w/w

## C[S+]([O-])CCCCN=C=S.OC[C@H]1O[C@@H]2O[C@H]3[C@H](O)[C@@H](O)[C@@H](O[C@H]4[C@H](O)[C@@H](O)[C@@H](O[C@H]5[C@H](O)[C@@H](O)[C@@H](O[C@H]6[C@H](O)[C@@H](O)[C@@H](O[C@H]7[C@H](O)[C@@H](O)[C@@H](O[C@H]1[C@H](O)[C@H]2O)O[C@@H]7CO)O[C@@H]6CO)O[C@@H]5CO)O[C@@H]4CO)O[C@@H]3CO [Form 3 (Example 5B-trial 5)]
[4]; 5° C. stability, 8 wk
  Related substances, HPLC RRT 0.56 (Dimer): 0.15 % Area
  Related substances, HPLC RRT 0.60 (α-CD adduct): 0.42 % Area
  Related substances, HPLC RRT 1.14 (Mixed dimer): 0.05 % Area
  Related substances, HPLC RRT 1.21 (Erysolin): 0.29 % Area
  Related substances, HPLC RRT 1.58 (Thioether dimer): <0.05 % Area
  Related substances, Total Impurities: 1.30 % Area
[4]; 5° C. stability, Initial
  Related substances, HPLC RRT 0.56 (Dimer): 0.15 % Area
  Related substances, HPLC RRT 0.60 (α-CD adduct): 0.36 % Area
  Related substances, HPLC RRT 1.14 (Mixed dimer): <0.05 % Area
  Related substances, HPLC RRT 1.21 (Erysolin): 0.28 % Area
  Related substances, HPLC RRT 1.58 (Thioether dimer): <0.05 % Area
  Related substances, Total Impurities: 1.16 % Area
[4]; 25° C./60% RH stability, 8 wk
  Related substances, HPLC RRT 0.56 (Dimer): 0.28 % Area
  Related substances, HPLC RRT 0.60 (α-CD adduct): 1.15 % Area
  Related substances, HPLC RRT 1.14 (Mixed dimer): 0.06 % Area
  Related substances, HPLC RRT 1.21 (Erysolin): 0.28 % Area
  Related substances, HPLC RRT 1.58 (Thioether dimer): <0.05 % Area
  Related substances, Total Impurities: 2.35 % Area
[4]; [6]
  Related substances, HPLC RRT 0.56 (Dimer): 0.15 % Area
  Related substances, HPLC RRT 0.60 (α-CD adduct): 0.36 % Area
  Related substances, HPLC RRT 1.14 (Mixed dimer): <0.05 % Area
  Related substances, HPLC RRT 1.21 (Erysolin): 0.28 % Area
  Related substances, HPLC RRT 1.58 (Thioether dimer): <0.05 % Area
  Related substances, Total Impurities: 1.16 % Area
[5]; [7]
  KF water content: 3.3 % w/w
[5]; [8]
  KF water content: 2.6 % w/w
[5]; [9]
  KF water content: 3.6 % w/w
[5]; [10]
  KF water content: 2.9 % w/w
